Source: the NIST ThermoML archive (doi:10.1021/je4005323)
Numbers after ± are expanded uncertainties.

Details: Liquid; for speed of sound: Pulse-echo method; for mass density: Vibrating tube method

CCCCC/C=C\C/C=C\CCCCCCCC(=O)OC [methyl (Z,Z)-9,12-octadecadienate]
speed of sound (343.15 K, 80000 kPa): 1583.9 ± 3.4 m/s
mass density (343.15 K, 80000 kPa): 895.7 ± 0.7 kg/m3
speed of sound (343.15 K, 90000 kPa): 1616.7 ± 3.5 m/s
mass density (343.15 K, 90000 kPa): 900.3 ± 0.7 kg/m3
speed of sound (343.15 K, 100000 kPa): 1648.6 ± 5.2 m/s
mass density (343.15 K, 100000 kPa): 904.7 ± 0.8 kg/m3
speed of sound (343.15 K, 110000 kPa): 1679 ± 5.2 m/s
speed of sound (343.15 K, 120000 kPa): 1708.5 ± 5.3 m/s
speed of sound (343.15 K, 130000 kPa): 1736.1 ± 5.4 m/s
speed of sound (343.15 K, 140000 kPa): 1763.4 ± 5.5 m/s
speed of sound (343.15 K, 150000 kPa): 1789.7 ± 5.6 m/s
speed of sound (343.15 K, 170000 kPa): 1840.9 ± 5.7 m/s
speed of sound (343.15 K, 190000 kPa): 1889.3 ± 5.8 m/s
speed of sound (343.15 K, 210000 kPa): 1935.4 ± 6 m/s
mass density (353.15 K, 101.3 kPa): 841.8 ± 0.6 kg/m3
mass density (353.15 K, 10000 kPa): 849.3 ± 0.6 kg/m3
mass density (353.15 K, 20000 kPa): 856.2 ± 0.6 kg/m3
mass density (353.15 K, 30000 kPa): 862.8 ± 0.6 kg/m3
mass density (353.15 K, 40000 kPa): 868.9 ± 0.7 kg/m3
mass density (353.15 K, 50000 kPa): 874.6 ± 0.7 kg/m3
mass density (353.15 K, 60000 kPa): 879.9 ± 0.7 kg/m3
mass density (353.15 K, 70000 kPa): 885.2 ± 0.7 kg/m3
mass density (353.15 K, 80000 kPa): 890 ± 0.7 kg/m3
mass density (353.15 K, 90000 kPa): 894.7 ± 0.8 kg/m3
mass density (353.15 K, 100000 kPa): 899.3 ± 0.8 kg/m3
speed of sound (363.15 K, 101.3 kPa): 1180.3 ± 2.7 m/s
mass density (363.15 K, 101.3 kPa): 834.7 ± 0.6 kg/m3
speed of sound (363.15 K, 10000 kPa): 1237 ± 2.8 m/s
mass density (363.15 K, 10000 kPa): 842.2 ± 0.6 kg/m3
speed of sound (363.15 K, 20000 kPa): 1288.6 ± 2.9 m/s
mass density (363.15 K, 20000 kPa): 849.5 ± 0.6 kg/m3
speed of sound (363.15 K, 30000 kPa): 1336.6 ± 3 m/s
mass density (363.15 K, 30000 kPa): 856.4 ± 0.6 kg/m3
speed of sound (363.15 K, 40000 kPa): 1381.1 ± 3.1 m/s
mass density (363.15 K, 40000 kPa): 862.6 ± 0.7 kg/m3
speed of sound (363.15 K, 50000 kPa): 1422.6 ± 3.1 m/s
mass density (363.15 K, 50000 kPa): 868.4 ± 0.7 kg/m3
speed of sound (363.15 K, 60000 kPa): 1462.6 ± 3.2 m/s
mass density (363.15 K, 60000 kPa): 873.9 ± 0.7 kg/m3
speed of sound (363.15 K, 70000 kPa): 1500.2 ± 3.3 m/s
mass density (363.15 K, 70000 kPa): 879.1 ± 0.7 kg/m3
speed of sound (363.15 K, 80000 kPa): 1536.1 ± 3.3 m/s
mass density (363.15 K, 80000 kPa): 884.1 ± 0.7 kg/m3
speed of sound (363.15 K, 90000 kPa): 1570.2 ± 3.4 m/s
mass density (363.15 K, 90000 kPa): 889 ± 0.8 kg/m3
speed of sound (363.15 K, 100000 kPa): 1602.5 ± 5 m/s
mass density (363.15 K, 100000 kPa): 893.9 ± 0.8 kg/m3
speed of sound (363.15 K, 110000 kPa): 1634 ± 5.1 m/s
speed of sound (363.15 K, 120000 kPa): 1663.9 ± 5.2 m/s
speed of sound (363.15 K, 130000 kPa): 1693 ± 5.3 m/s
speed of sound (363.15 K, 140000 kPa): 1720.3 ± 5.4 m/s
speed of sound (363.15 K, 150000 kPa): 1747.4 ± 5.4 m/s
speed of sound (363.15 K, 170000 kPa): 1799.1 ± 5.6 m/s
speed of sound (363.15 K, 190000 kPa): 1847.3 ± 5.7 m/s
speed of sound (363.15 K, 210000 kPa): 1894.7 ± 5.9 m/s
mass density (373.15 K, 101.3 kPa): 826.5 ± 0.6 kg/m3
mass density (373.15 K, 10000 kPa): 835.3 ± 0.6 kg/m3
mass density (373.15 K, 20000 kPa): 842.9 ± 0.6 kg/m3
mass density (373.15 K, 30000 kPa): 849.9 ± 0.6 kg/m3
mass density (373.15 K, 40000 kPa): 856.4 ± 0.7 kg/m3
mass density (373.15 K, 50000 kPa): 862.4 ± 0.7 kg/m3
mass density (373.15 K, 60000 kPa): 868.3 ± 0.7 kg/m3
mass density (373.15 K, 70000 kPa): 873.9 ± 0.7 kg/m3
mass density (373.15 K, 80000 kPa): 879.3 ± 0.8 kg/m3
mass density (373.15 K, 90000 kPa): 884.3 ± 0.8 kg/m3
mass density (373.15 K, 100000 kPa): 889.1 ± 0.8 kg/m3
speed of sound (383.15 K, 101.3 kPa): 1118.2 ± 2.6 m/s
mass density (383.15 K, 101.3 kPa): 819.3 ± 0.6 kg/m3
speed of sound (383.15 K, 10000 kPa): 1178.7 ± 2.7 m/s
mass density (383.15 K, 10000 kPa): 828.2 ± 0.6 kg/m3
speed of sound (383.15 K, 20000 kPa): 1233.8 ± 2.8 m/s
mass density (383.15 K, 20000 kPa): 836.2 ± 0.6 kg/m3
speed of sound (383.15 K, 30000 kPa): 1283.1 ± 2.9 m/s
mass density (383.15 K, 30000 kPa): 843.5 ± 0.6 kg/m3
speed of sound (383.15 K, 40000 kPa): 1329 ± 3 m/s
mass density (383.15 K, 40000 kPa): 850.2 ± 0.7 kg/m3
speed of sound (383.15 K, 50000 kPa): 1372.3 ± 3 m/s
mass density (383.15 K, 50000 kPa): 856.8 ± 0.7 kg/m3
speed of sound (383.15 K, 60000 kPa): 1413.2 ± 3.1 m/s
mass density (383.15 K, 60000 kPa): 862.7 ± 0.7 kg/m3
speed of sound (383.15 K, 70000 kPa): 1452.3 ± 3.2 m/s
mass density (383.15 K, 70000 kPa): 868.2 ± 0.7 kg/m3
speed of sound (383.15 K, 80000 kPa): 1489.5 ± 3.2 m/s
mass density (383.15 K, 80000 kPa): 873.5 ± 0.8 kg/m3
speed of sound (383.15 K, 90000 kPa): 1525.2 ± 3.3 m/s
mass density (383.15 K, 90000 kPa): 878.7 ± 0.8 kg/m3
speed of sound (383.15 K, 100000 kPa): 1558.2 ± 4.9 m/s
mass density (383.15 K, 100000 kPa): 883.9 ± 0.8 kg/m3
speed of sound (383.15 K, 110000 kPa): 1590.3 ± 5 m/s
speed of sound (383.15 K, 120000 kPa): 1621.1 ± 5.1 m/s
speed of sound (383.15 K, 130000 kPa): 1650.8 ± 5.2 m/s
speed of sound (383.15 K, 140000 kPa): 1679.1 ± 5.2 m/s
speed of sound (383.15 K, 150000 kPa): 1707.1 ± 5.3 m/s
speed of sound (383.15 K, 170000 kPa): 1759.8 ± 5.5 m/s
speed of sound (383.15 K, 190000 kPa): 1808.6 ± 5.6 m/s
speed of sound (383.15 K, 210000 kPa): 1855.8 ± 5.7 m/s
speed of sound (393.15 K, 101.3 kPa): 1088 ± 2.5 m/s
mass density (393.15 K, 101.3 kPa): 811.9 ± 0.6 kg/m3
speed of sound (393.15 K, 10000 kPa): 1150.9 ± 2.6 m/s
mass density (393.15 K, 10000 kPa): 820.9 ± 0.6 kg/m3
speed of sound (393.15 K, 20000 kPa): 1207.3 ± 2.7 m/s
mass density (393.15 K, 20000 kPa): 829.3 ± 0.6 kg/m3
speed of sound (393.15 K, 30000 kPa): 1258.5 ± 2.8 m/s
mass density (393.15 K, 30000 kPa): 837 ± 0.6 kg/m3
speed of sound (393.15 K, 40000 kPa): 1304.7 ± 2.9 m/s
mass density (393.15 K, 40000 kPa): 844.1 ± 0.7 kg/m3
speed of sound (393.15 K, 50000 kPa): 1348.4 ± 3 m/s
mass density (393.15 K, 50000 kPa): 850.5 ± 0.7 kg/m3
speed of sound (393.15 K, 60000 kPa): 1389.4 ± 3.1 m/s
mass density (393.15 K, 60000 kPa): 856.7 ± 0.7 kg/m3
speed of sound (393.15 K, 70000 kPa): 1428.7 ± 3.1 m/s
mass density (393.15 K, 70000 kPa): 862.4 ± 0.8 kg/m3
speed of sound (393.15 K, 80000 kPa): 1466.7 ± 3.2 m/s
mass density (393.15 K, 80000 kPa): 867.9 ± 0.8 kg/m3
speed of sound (393.15 K, 90000 kPa): 1503.1 ± 3.3 m/s
mass density (393.15 K, 90000 kPa): 873 ± 0.8 kg/m3
speed of sound (393.15 K, 100000 kPa): 1537.7 ± 4.8 m/s
mass density (393.15 K, 100000 kPa): 878.1 ± 0.8 kg/m3
speed of sound (393.15 K, 110000 kPa): 1570 ± 4.9 m/s
speed of sound (393.15 K, 120000 kPa): 1600.8 ± 5 m/s
speed of sound (393.15 K, 130000 kPa): 1630.7 ± 5.1 m/s
speed of sound (393.15 K, 140000 kPa): 1660.1 ± 5.2 m/s
speed of sound (393.15 K, 150000 kPa): 1688 ± 5.3 m/s
speed of sound (393.15 K, 170000 kPa): 1740.7 ± 5.4 m/s
speed of sound (393.15 K, 190000 kPa): 1790 ± 5.6 m/s
speed of sound (393.15 K, 210000 kPa): 1838.1 ± 5.7 m/s
